Experimental data reported in the supplement of paper PMC10883282.
± gives the standard deviation of the averaged measurements.

Test system: SW1353
Assay: relative viability vs DMSO control (72 h) (fraction); higher = more viable cells
How it was run: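 Percent growth from ATPLite readings, averaged over up to triplicate wells, was used as relative viability. Sarcoma cell lines were seeded into 384-well plates for 80–90% confluence, dosed after 24 h, and kept 72 h at 37 °C, 5% CO2. Data were rescaled to a range where 1 is full and 0 is none.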

| Compound | relative viability (0.00017 µM) | relative viability (0.00051 µM) | relative viability (0.00152 µM) | relative viability (0.00457 µM) | relative viability (0.01372 µM) | relative viability (0.04115 µM) | relative viability (0.1235 µM) | relative viability (0.3704 µM) | relative viability (1.111 µM) | relative viability (3.333 µM) | relative viability (10 µM) |
| --- | --- | --- | --- | --- | --- | --- | --- | --- | --- | --- | --- |
| Cc1ccc(F)c(NC(=O)Nc2ccc(-c3cccc4[nH]nc(N)c34)cc2)c1 [Linifanib] | 1.08 ± 0.035 | 0.998 ± 0.023 | 1.02 ± 0.012 | 1.02 ± 0.015 | 1 ± 0.036 | 1.01 ± 0.057 | 0.982 ± 0.055 | 1.037 ± 0.009 | 1.07 ± 0.018 | 1.07 ± 0.036 | 0.9638 ± 0.0037 |
| CNC(=O)c1ccc(-c2cnc3ncc(Cc4ccc5ncccc5c4)n3n2)cc1F [Capmatinib] | 0.958 ± 0.038 | 0.979 ± 0.033 | 0.973 ± 0.029 | 0.986 ± 0.063 | 0.974 ± 0.019 | 0.964 ± 0.049 | 1.01 ± 0.036 | 0.98 ± 0.044 | 1.05 ± 0.025 | 1.07 ± 0.011 | 1.03 ± 0.018 |
| CN1CCC(COc2cnc(-c3cccc(Cn4nc(-c5cccc(C#N)c5)ccc4=O)c3)nc2)CC1 [Tepotinib] | 1.025 ± 0.0083 | 1.02 ± 0.015 | 1.01 ± 0.021 | 1.01 ± 0.018 | 0.984 ± 0.028 | 0.988 ± 0.035 | 0.951 ± 0.029 | 0.976 ± 0.039 | 0.93 ± 0.046 | 0.977 ± 0.027 | 0.573 ± 0.17 |
| N#CC[C@H](C1CCCC1)n1cc(-c2ncnc3[nH]ccc23)cn1 [Ruxolitinib] | 1.049 ± 0.0061 | 1.1 ± 0.052 | 1.1 ± 0.027 | 1.09 ± 0.029 | 1.09 ± 0.029 | 1.09 ± 0.014 | 1.05 ± 0.021 | 1.04 ± 0.011 | 1.03 ± 0.038 | 1.02 ± 0.033 | 0.807 ± 0.012 |
| CC(C)(C)c1cc(NC(=O)Nc2ccc(-c3cn4c(n3)sc3cc(OCCN5CCOCC5)ccc34)cc2)no1 [Quizartinib] | 1.02 ± 0.03 | 1.02 ± 0.047 | 1.02 ± 0.057 | 1.03 ± 0.047 | 1.01 ± 0.059 | 1.03 ± 0.043 | 1.02 ± 0.046 | 1.01 ± 0.031 | 0.965 ± 0.044 | 0.874 ± 0.02 | 0.981 ± 0.035 |
| COc1c(OCCCN2CCOCC2)ccc2c1N=C(NC(=O)c1cnc(N)nc1)N1CCN=C21 [Copanlisib] | 1.08 ± 0.053 | 1.05 ± 0.054 | 1.01 ± 0.025 | 0.917 ± 0.011 | 0.845 ± 0.033 | 0.743 ± 0.047 | 0.635 ± 0.045 | 0.518 ± 0.011 | 0.441 ± 0.015 | 0.412 ± 0.03 | 0.364 ± 0.017 |
| Cc1ccc(NC(=O)c2ccc(CN3CCN(C)CC3)cc2)cc1Nc1nc(-c2cccnc2)cs1 [Masitinib] | 1.03 ± 0.017 | 0.998 ± 0.012 | 0.986 ± 0.023 | 0.9886 ± 0.0079 | 0.989 ± 0.014 | 1.018 ± 0.0045 | 0.925 ± 0.006 | 0.86 ± 0.049 | 0.755 ± 0.047 | 0.478 ± 0.026 | 0.032 ± 0.0052 |
| Cn1cc(-c2cc3c(N4CCN(c5ncc([C@@](C)(N)c6ccc(F)cc6)cn5)CC4)ncnn3c2)cn1 [Avapritinib] | 0.96 ± 0.072 | 0.905 ± 0.043 | 0.894 ± 0.057 | 0.92 ± 0.012 | 0.894 ± 0.04 | 0.883 ± 0.051 | 0.871 ± 0.036 | 0.819 ± 0.04 | 0.819 ± 0.02 | 0.776 ± 0.03 | 0.715 ± 0.042 |
| O=C(Cc1ccc(-c2ccc(OCCN3CCOCC3)cc2)cn1)NCc1ccccc1 [KX2-391] | 1.06 ± 0.023 | 1.09 ± 0.031 | 1.02 ± 0.014 | 1.01 ± 0.035 | 0.962 ± 0.01 | 0.952 ± 0.011 | 0.607 ± 0.037 | 0.446 ± 0.024 | 0.425 ± 0.018 | 0.462 ± 0.014 | 0.458 ± 0.019 |
| CO[C@H]1C[C@@H]2CC[C@@H](C)[C@@](O)(O2)C(=O)C(=O)N2CCCC[C@H]2C(=O)O[C@H]([C@H](C)C[C@@H]2CC[C@@H](OP(C)(C)=O)[C@H](OC)C2)CC(=O)[C@H](C)/C=C(\C)[C@@H](O)[C@@H](OC)C(=O)[C@H](C)C[C@H](C)/C=C/C=C/C=C/1C [Ridaforolimus] | 0.961 ± 0.028 | 0.905 ± 0.041 | 0.805 ± 0.012 | 0.771 ± 0.011 | 0.747 ± 0.029 | 0.742 ± 0.033 | 0.723 ± 0.016 | 0.72 ± 0.035 | 0.702 ± 0.012 | 0.707 ± 0.012 | 0.682 ± 0.023 |
| CCc1cc2c(cc1N1CCC(N3CCOCC3)CC1)C(C)(C)c1[nH]c3cc(C#N)ccc3c1C2=O [Alectinib] | 0.987 ± 0.02 | 0.993 ± 0.027 | 1.01 ± 0.019 | 1.002 ± 0.0077 | 0.996 ± 0.038 | 1.04 ± 0.012 | 0.988 ± 0.057 | 1.07 ± 0.032 | 0.9953 ± 0.0051 | 1.06 ± 0.058 | 1.14 ± 0.016 |
| C[C@@H](c1ccc2nccn2c1)n1nnc2ncc(-c3cnn(C)c3)nc21 [Volitinib] | 1.01 ± 0.033 | 1.01 ± 0.011 | 0.998 ± 0.028 | 1.02 ± 0.019 | 1.02 ± 0.044 | 1 ± 0.048 | 1.01 ± 0.045 | 0.976 ± 0.026 | 1.03 ± 0.016 | 0.987 ± 0.035 | 1.02 ± 0.023 |
| CC1(C)CNc2cc(NC(=O)c3cccnc3NCc3ccncc3)ccc21 [Motesanib] | 0.993 ± 0.037 | 1.01 ± 0.013 | 1.02 ± 0.011 | 1 ± 0.018 | 0.997 ± 0.03 | 1.01 ± 0.012 | 0.963 ± 0.031 | 0.964 ± 0.016 | 0.977 ± 0.025 | 0.935 ± 0.023 | 0.898 ± 0.025 |
| CN1CCN(c2ccc3nc(-c4c(N)c5c(F)cccc5[nH]c4=O)[nH]c3c2)CC1 [Dovitinib] | 1.08 ± 0.036 | 1.09 ± 0.015 | 1.04 ± 0.04 | 1.07 ± 0.019 | 1.06 ± 0.014 | 1.01 ± 0.03 | 1.01 ± 0.048 | 0.959 ± 0.036 | 0.749 ± 0.017 | 0.53 ± 0.043 | 0.06 ± 0.0053 |
| CNC(=O)c1cc(Oc2ccc(NC(=O)Nc3ccc(Cl)c(C(F)(F)F)c3)c(F)c2)ccn1 [Regorafenib] | 1.11 ± 0.029 | 1.05 ± 0.05 | 1.07 ± 0.017 | 1.08 ± 0.021 | 1.04 ± 0.096 | 1.01 ± 0.043 | 1.08 ± 0.044 | 0.996 ± 0.07 | 0.978 ± 0.047 | 0.919 ± 0.036 | 0.555 ± 0.02 |
| Cc1nc(NC(=O)N2CCC[C@H]2C(N)=O)sc1-c1ccnc(C(C)(C)C(F)(F)F)c1 [Alpelisib] | 1.02 ± 0.034 | 1 ± 0.024 | 1.01 ± 0.011 | 0.973 ± 0.028 | 0.977 ± 0.072 | 0.902 ± 0.027 | 0.9309 ± 0.0035 | 0.903 ± 0.039 | 0.819 ± 0.061 | 0.731 ± 0.024 | 0.594 ± 0.037 |
| CCN1CCN(Cc2ccc(Nc3ncc(F)c(-c4cc(F)c5nc(C)n(C(C)C)c5c4)n3)nc2)CC1 [Abemaciclib] | 0.958 ± 0.031 | 0.974 ± 0.017 | 0.976 ± 0.021 | 0.944 ± 0.011 | 0.9333 ± 0.0082 | 0.884 ± 0.033 | 0.778 ± 0.023 | 0.74 ± 0.021 | 0.699 ± 0.024 | 0.73 ± 0.046 | 0.721 ± 0.047 |
| CC[C@H](Nc1ncnc2[nH]cnc12)c1nc2cccc(F)c2c(=O)n1-c1ccccc1 [Idelalisib] | 1.06 ± 0.038 | 1.05 ± 0.053 | 1.04 ± 0.048 | 1.05 ± 0.02 | 1.01 ± 0.043 | 0.969 ± 0.016 | 0.952 ± 0.045 | 0.931 ± 0.043 | 0.831 ± 0.042 | 0.752 ± 0.011 | 0.573 ± 0.027 |
| C=CC(=O)N1CCC[C@@H](n2nc(-c3ccc(Oc4ccccc4)cc3)c3c(N)ncnc32)C1 [Ibrutinib] | 1.03 ± 0.041 | 1.04 ± 0.028 | 1 ± 0.032 | 1.013 ± 0.0014 | 0.947 ± 0.03 | 0.945 ± 0.011 | 0.854 ± 0.05 | 0.821 ± 0.012 | 0.746 ± 0.043 | 0.647 ± 0.014 | 0.412 ± 0.021 |
